Experimental data taken from patent US20080021106A1, “CELLULAR UPTAKE OF BIOACTIVE AGENTS” (Aesgen, Inc., priority 1999, published 2008).
Like-named read-outs stand apart in the source and are kept apart here. Blank lines part the entries; values can stand above or below the compound they belong to. Where a SMILES comes first, the peptide text is derived from it. [ ]: non-standard residue; d: D form. Sar = CNCC(=O)O

Experiments:
[1] = system: Caco-2 cell monolayers
Description: (§1) Uptake and permeability of each compound was measured in the apical-to-basolateral direction, with and without vehicle.
(§2) Each compound was tritiated. ^14C-mannitol was used as an evaluation of monolayer/cell integrity (i.e. as a low uptake/permeability marker).
(§3) Uptake and Permeability Assessments. Compound cellular uptake into and permeability across Caco-2 monolayers was measured.
(§4) Monolayer integrity was monitored using ^14C-mannitol permeability. Mannitol uptake was also studied.
(§5) ^14C-mannitol and ^3H-drugs were quantified by liquid scintillation counting. For uptake studies, at designated time points (10 sec, 60 sec, and 5 min), the donor solution was aspirated off. The cell monolayer was washed twice with ice cold HBSS to remove any residual binding and then dissolved in 1 ml of the cell solubilizing agent, Solvable®. The cell lysate (0.5 ml) was added to 5 ml scintillation cocktail (Econosafe®) and counted on liquid scintillation counter (Beckman LS5801, Columbia, Md.). For permeability studies, 0.5 ml of received solution was added to 5 ml scintillation cocktail (Econosafe®) and counted on liquid scintillation counter.
(§6) Since saturated solutions of unknown concentration of drugs were used, absolute uptake could not be calculated.

[2] = system: Caco-2 cell monolayers; remark: listed apart in the source
Description: as §1, §2, §3, §4, §5
(§7) Permeability (3) in each experiment was calculated (FIG. 8-12) using eq 1: [formula] where P is permeability, dM/dt is rate of drug mass accumulation (i.e., radioactivity) in receiver compartment, A is area, and Cd is donor drug concentration (i.e., radioactivity). […] Permeability is an absolute measure (units of cm/Sec or velocity) and can be determined even though the absolute drug concentrations were not known.

[3] = system: Caco-2 cell monolayers; experiment: Caco-2 permeability, apical to basolateral, with and without vehicle; conditions: no vehicle vs with vehicle, 5 min period (FIG. 8-12)
Description: as §1, §2, §3, §4, §5, §7

[4] = system: Caco-2 cell monolayers; experiment: Cellular uptake of tritiated drugs and 14C-mannitol into Caco-2 monolayers, with and without vehicle; conditions: saturated solutions, AES-14 / blank AES-14 vs HBSS, up to 5 min
Description: as §1, §2, §3, §4, §5, §6

effect of Aesgen-14 vehicle on Caco-2 permeability (in words) [2]: no effect
Compound: NC(=O)CC[C@H](N)C(=O)O [L-glutamine]
enhancement of cellular uptake by vehicle [1]: To perhaps a lesser extent, vehicle enhanced

effect of Aesgen-14 vehicle on Caco-2 permeability (in words) [2]: no effect
Compound: NC(=O)C[C@H](N)C(=O)O [L-asparagine]

effect of vehicle on mannitol relative uptake (in words) [1]: no effect
effect of vehicle on mannitol permeability (in words) [2]: no effect
Compound: OC[C@@H](O)[C@@H](O)[C@H](O)[C@H](O)CO [Mannitol, mannitol]

effect of Aesgen-14 vehicle on Caco-2 permeability (in words) [3]: no effect
Compound: CN(CC(=O)O)C(=O)CN [glycylsarcosine] (H-Gly-[Sar]-OH)
enhancement of cellular drug uptake by vehicle (relative uptake vehicle vs HBSS) [4]: about four-fold
